Experimental data reported in article PMC8112869, “Therapeutic inhibition of keratinocyte TRPV3 sensory channel by local anesthetic dyclonine” (eLife, 2021).

How the values were obtained:
mouse TRPV3 = molecular target: T1, mouse TRPV3 (Mus musculus, UniProt Q8K424); assay: cell-based; conditions: for TRPV3 currents response, of control level: 100 µM 2-APB, –60 mV, after sensitization; for EC50: EC50 of 2-APB for TRPV3 activation
T1 sequence (Q8K424 1-791): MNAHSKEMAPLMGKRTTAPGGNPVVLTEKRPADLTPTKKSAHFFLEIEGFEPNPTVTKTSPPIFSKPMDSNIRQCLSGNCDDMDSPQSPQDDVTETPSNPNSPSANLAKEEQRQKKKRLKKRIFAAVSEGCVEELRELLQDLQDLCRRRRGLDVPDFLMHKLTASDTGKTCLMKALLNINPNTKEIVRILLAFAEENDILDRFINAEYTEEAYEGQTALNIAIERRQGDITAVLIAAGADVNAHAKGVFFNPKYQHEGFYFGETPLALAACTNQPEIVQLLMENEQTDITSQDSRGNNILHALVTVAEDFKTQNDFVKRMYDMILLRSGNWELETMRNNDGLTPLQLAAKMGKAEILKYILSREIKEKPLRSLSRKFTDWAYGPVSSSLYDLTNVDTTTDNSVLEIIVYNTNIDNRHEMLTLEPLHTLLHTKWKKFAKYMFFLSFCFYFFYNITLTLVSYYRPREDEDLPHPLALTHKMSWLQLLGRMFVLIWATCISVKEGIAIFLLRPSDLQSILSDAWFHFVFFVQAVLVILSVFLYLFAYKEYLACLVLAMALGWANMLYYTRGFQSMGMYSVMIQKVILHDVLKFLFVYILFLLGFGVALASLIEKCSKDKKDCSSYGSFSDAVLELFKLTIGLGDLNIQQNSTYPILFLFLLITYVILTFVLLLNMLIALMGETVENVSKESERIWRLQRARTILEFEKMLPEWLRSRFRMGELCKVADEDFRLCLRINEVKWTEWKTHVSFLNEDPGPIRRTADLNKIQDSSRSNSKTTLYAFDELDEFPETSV
Source text: The WT mouse TRPV3 (mTRPV3), human TRPV3 (hTRPV3), rat TRPV1, rat TRPV2, rat TRPM8, and mouse TRPA1 cDNAs were generously provided by Dr. Feng Qin (State University of New York at Buffalo, Buffalo, USA). The GFP-mTRPV3 WT and the mutants (mTRPV3-G573S and mTRPV3-G573C) in pcDNA4/TO vector were gifts from Dr. Michael X Zhu (The University of Texas Health Science Center at Houston, Houston, USA). The WT fTRPV3 was kindly provided by Dr. Makoto Tominaga (Department of Physiological Sciences, SOKENDAI, Okazaki, Japan). All mutations were made using the overlap-extension polymerase chain reaction method as previously described ([Tian et al., 2019]). The resulting mutations were then verified by DNA sequencing. HEK 293T and T-Rex 293 cells were grown in Dulbecco’s modified Eagle’s medium (DMEM, Thermo Fisher Scientific, MA) containing 4.5 mg/ml glucose, 10% heat-inactivated fetal bovine serum (FBS), 50 units/ml penicillin, and […], and were incubated at 37°C in a humidified incubator gassed with 5% CO2. For T-Rex 293, blasticidin S (10 μg/ml) was also included. Cells grown into ~80% confluence were transfected with the desired DNA constructs using either the standard calcium phosphate precipitation method or lipofectamine 2000 (Invitrogen, Carlsbad, CA) following the protocol provided by the manufacturer. Transfected HEK 293T cells were reseeded on 12 mm round glass coverslips coated by poly-L-lysine. Experiments took place ~12–24 hr after transfection.
Conventional whole-cell and excised patch-clamp recording methods were used. For the recombinant expressing system, green fluorescent EGFP was used as a surface marker for gene expression. Recording pipettes were pulled from borosilicate glass capillaries (World Precision Instruments) and fire-polished to a resistance between 2 and 4 MΩ when filled with internal solution containing (in mM) 140 CsCl, 2.0 MgCl2, 5 EGTA, and 10 HEPES, pH 7.4 (adjusted with CsOH). Bath solution contained (in mM): 140 NaCl, 5 KCl, 3 EGTA, and 10 HEPES, pH 7.4 adjusted with NaOH. For recordings in keratinocytes, the bath saline consisted of (in mM) 140 NaCl, 5 KCl, 2 MgCl2, 2 CaCl2, 10 glucoses, and 10 HEPES, pH 7.4 adjusted with NaOH, and the pipette solution contained (in mM) 140 CsCl, 5 EGTA, and 10 HEPES, pH 7.3 adjusted with CsOH. For single-channel recordings, the pipette solution and bath solution were symmetrical and contained (in mM) 140 NaCl, 5 KCl, 3 EGTA, and 10 HEPES, pH 7.4. Isolated cells were voltage clamped and held at –60 mV using an EPC10 amplifier with the Patchmaster software (HEKAElectronics, Lambrecht, Germany). For a subset of recordings, currents were amplified using an Axopatch 200B amplifier (Molecular Devices, Sunnyvale, CA) and recorded through a BNC-2090/MIO acquisition system (National Instruments, Austin, TX) using QStudio developed by Dr. Feng Qin at State University of New York at Buffalo. Whole-cell recordings were typically sampled at 5 kHz and filtered at 1 kHz, and single-channel recordings were sampled at 25 kHz and filtered at 10 kHz. The compensation of pipette series resistance and capacitance was compensated using the built-in circuitry of the amplifier (>80%) to reduce voltage errors. Exchange of external solution was performed using a gravity-driven local perfusion system. […] Dyclonine hydrochloride, MTSET and carvacrol were purchased from MCE (MedChemExpress). Unless otherwise noted, all chemicals were purchased from Sigma (Millipore Sigma, St. Louis, MO). Water-insoluble reagents were dissolved in pure ethanol or DMSO to make a stock solution and diluted into the recording solution at the desired final concentrations before the experiment. […] In the scratching behavior experiments, carvacrol was first dissolved in 10% ethanol and then diluted in normal saline before administration.

[1] = test system: T-Rex 293 cells expressing TRPV3 G573C; assay: Cell death analysis by flow cytometry (propidium iodide), cells expressing G573C mutant; type: cell-based, Homo sapiens
Method: T-Rex 293 cells were grown in DMEM containing 4.5 mg/ml glucose, 10% (vol/vol) FBS, 50 units/ml penicillin, 50 μg/ml streptomycin, and blasticidin S (10 μg/ml), and were incubated at 37°C in a humidified incubator gassed with 5% CO2. Transfections were performed in wells of a 24-well plate using lipofectamine 2000 (Invitrogen). […] Expression of GFP fluorescence detected by an epifluorescence microscope was used as an indicator of gene expression. After treatments with the compounds for 12 hr, cells were collected, washed twice with PBS, resuspended, and then dyed with propidium iodide (PI, Thermo Fisher Scientific) in the dark according to the manufacturer’s instructions. The membrane integrity of the cells was assessed using a BD FACSCelesta flow cytometer equipped with BD Accuri C6 software (BD Biosciences, USA).

[2] = dyclonine (50 μM) or 2-APB (30 μM) alone, averaged from seven experiments

IC50 (mouse TRPV3) [µM] | initial TRPV3 current (mouse TRPV3; 100 μM 2-APB with 5 μM dyclonine) [pA/pF] | Hill coefficient nH of inhibition of TRPV3 currents (mouse TRPV3; 2-APB-evoked, WT mouse TRPV3) | inhibition at 10 µM (mouse TRPV3; HEK-293T, read-out: inhibition of TRPV3 current (reduction in current amplitude)) [%] | SMILES | TRPV3 currents response, of control level (mouse TRPV3; 5 µM dyclonine) | TRPV3 currents response, of control level (mouse TRPV3; 10 µM dyclonine) | repetitions to reach the current level of full sensitization (mouse TRPV3; repeated 100 μM 2-APB with 5 μM dyclonine) | cell death ratio ([1]; dyclonine (50 μM) added to 2-APB (30 μM), averaged) | cell death ratio [1, 2] | initial TRPV3 current (mouse TRPV3; 100 μM 2-APB without dyclonine) [pA/pF] | EC50 (mouse TRPV3; with 3 μM dyclonine) [µM] | EC50 (mouse TRPV3; without dyclonine, after full sensitization) [µM] | repetitions to reach full sensitization level (mouse TRPV3; repeated 100 μM 2-APB alone) | Hill coefficient nH of 2-APB activation (mouse TRPV3; with 3 μM dyclonine) | Hill coefficient nH of 2-APB activation (mouse TRPV3; without dyclonine)
3.2 ± 0.24 | 31.12 ± 2.86 | 2.2 ± 0.32 | 87 | CCCCOc1ccc(C(=O)CCN2CCCCC2)cc1 [dyclonine] | 30% ± 2% | 15% ± 3% | ~ 16 repetitions | 13.85% ± 2.49% | 14.98% ± 4.40% | – | – | – | – | – | –
– | – | – | – | NCCOB(c1ccccc1)c1ccccc1 [2-APB, 2-aminoethoxydiphenyl borate] | – | – | – | – | 47.91% ± 5.54% | 86.43 ± 5.9 | 22 ± 0.86 | 22.93 ± 0.02 | approximately eight | 1.7 ± 0.1 | 1.6 ± 0.1
